Measured values as given in paper PMC6572618, “Anti-Trypanosomal and Antimalarial Properties of Tetralone Derivatives and Structurally Related Benzocycloalkanones” (Medicina, 2019).
Like-named read-outs stand apart in the source and are kept apart here.

What was measured:
Type in all cases: cell-based
[1] = system: 427 Trypanosoma brucei brucei trypomastigotes; assay: In vitro anti-trypanosomal assay (resazurin); conditions: 48 h; for viability at 20 µM / IC50: Trypanosoma brucei; for viability at 20 µM: read-out: % Viability at 20 µM (SD) T.b. brucei; for IC50: three-fold serial dilutions from 100 µM, read-out: IC50 (µM) T. b. brucei
Description: The activity of the compounds against 427 Trypanosoma brucei brucei trypomastigotes was determined as previously described. Briefly, parasites were incubated in 96-well plates with 20 µM or three-fold serial dilutions (100 µM starting concentration) of test compounds in Iscove’s modified Dulbecco’s medium (IMDM) (Lonza, Basel, Switzerland) supplemented with 10% fetal calf serum, HMI-9 supplement, hypoxanthine, and penicillin/streptomycin at 37 °C in a 5% CO2 incubator. After 48 h, 20 µL of resazurin reagent (0.135 mg/mL resazurin in phosphate-buffered saline) was added to each well and the fluorescence (Ex560/Em590) read after 2–4 h in a Spectramax M3 plate reader (Molecular Devices, San Jose, CA, USA). The fluorescence readings were used to calculate % parasite viability relative to the readings obtained from the wells containing untreated control parasite cultures. The IC50 values were determined by plotting % viability vs. log(compound) and performing a non-linear regression using a GraphPad Prism (v. 5.02) (San Diego, CA, USA).
(§1) Thirty-five tetralone derivatives (see Figure 2) and six related benzocycloalkanones (see Figure 3) were evaluated in vitro against T. b. brucei for antitrypanosomal activity through the resazurin assay protocol. The compounds were also evaluated against the chloroquine-sensitive strain (3D7) of P. falciparum for antimalarial activity using pLDH assay and against the HeLa cell line for cytotoxicity evaluation using the resazurin assay protocol.

[2] = In vitro cytotoxicity assay (resazurin); conditions: human, 20 µM compound, 24 h, % cell viability relative to untreated control, read-out: % Viability at 20 µM (SD) HeLa Cell
Description: As previously described, HeLa cells (Cellonex, Johannesburg, South Africa) were seeded in 96-well plates at a density of 2 × 10^4 cells/well in Dulbecco’s modified Eagle’s medium (DMEM) (Lonza, Basel, Switzerland) supplemented with 10% fetal calf serum and antibiotics (penicillin/streptomycin/amphotericin B) and incubated overnight at 37 °C in a 5% CO2 incubator. Compounds were added to the cells at a final concentration of 20 µM, and incubation continued for 24 h. The cell viability in the wells was assessed by adding 20 µL of resazurin reagent (0.135 mg/mL resazurin in phosphate-buffered saline) and reading the fluorescence (Ex560/Em590) after an additional 2–4 h incubation. The fluorescence readings were converted to % cell viability relative to the average readings obtained from the untreated control wells.
as §1

[3] = system: chloroquine sensitive strain of P. falciparum (3D7); assay: In vitro antiplasmodial assay (parasite lactate dehydrogenase, pLDH); conditions: Plasmodium falciparum, 3D7, 48 h, read-out: % Viability at 20 µM (SD) 3D7
Description: An antimalarial evaluation was performed against the chloroquine sensitive strain of P. falciparum (3D7) using the parasite lactate dehydrogenase (pLDH) assay as previously reported. Parasites were seeded at 2% parasitemia and 1% hematocrit in 96 well plates and were incubated with 20 µM of the test compounds for 48 h in culture medium consisting of Rosell Park Memorial Institute (RPMI 1640; Lonza, Basel, Switzerland) containing 25 mM 4-(2-hydroxyethyl)-1-piperazineethanesulfonic acid (HEPES), supplemented with 0.5% (w/v) Albumax II, 22 mM glucose, 0.65 mM hypoxanthine, 0.05mg/mL gentamicin, and 1% (v/v) human erythrocytes, at 37 °C under an atmosphere of 5% CO2, 5% O2, and 90% N2. The parasite lactate dehydrogenase activity in the wells was determined using the colorimetric assay method of Makler et al.. The absorbance readings were converted to % parasite viability relative to the wells containing untreated parasites.
as §1

[4] = 20 µM compound, % parasite viability relative to untreated control
[5] = 20 µM compound, 48 h, P. falciparum 3D7, % parasite viability relative to untreated parasites

Structure (SMILES) | viability at 20 µM [1, 4] [%] | viability at 24 h, 20 µM ([2]; HeLa cells) [%] | viability at 20 µM [3, 5] [%] | IC50 [1] [µM] | % Viability at 20 µM (SD) T.b. brucei ([1]; 20 µM compound, % parasite viability relative to untreated control, 20 µM) | viability at 24 h, 20 µM [2] [%] | viability at 20 µM [3] [%]
COc1ccc2c(c1)C(=O)/C(=C/C1CCCCC1)CC2 [Compound 26] | < 1 | 92 | 119 | – | – | – | –
COc1ccc2c(c1)C(=O)/C(=C/C1CCCC1)CC2 [Compound 27] | < 1 | 85 | 81 | 5.4 | – | – | –
COc1ccc2c(c1)C(=O)/C(=C/c1ccsc1)CC2 [Compound 35] | 22 | 122 | 86 | 2.6 | – | – | –
O=C1/C(=C/c2ccc(Cl)cc2)COc2ccccc21 [Compound 38] | – | – | – | 0.4 | 0.4 (0.2) % | 75 | 98
